Consider 1 molecule from paper PMC7994712 (Nature Communications, 2021).

As a reminder, the IC50 is the point on the concentration scale where inhibition reaches its midpoint. Read a low IC50 as higher potency. A word on the viability: it is a per cent measure of how many cells are alive, often set against a control. High values mean better survival, low ones a greater loss of cells.

In one data set the target is T1, SSTR3 (Homo sapiens, UniProt P32745).
T1 construct: host or cells: CHO-K1
Description: Radio-ligand binding assay, SSTR3. As to the method: (§1) Graphical and tabular representation of the percentage inhibition of specific binding, as IC50 (nM) binding values for the analogues against the five SSTR1-SSTR5 is represented in Supplementary Fig. 1b and Supplementary Table 1. […] IC50 values were determined by a non-linear, least squares regression analysis using Prism 9 (GraphPad Software, USA), using the Dose-response inhibition (three-parameters) model. […]
(§2) (SSTR1-SSTR5), using a Radio-ligand Binding Assay (Supplementary Figure 1b). Cells were incubated in HEPES buffer pH 7.4 with the new analogues of Cortistatin at 10 different concentrations in a range […]
(§3) specifically bound (performed at Eurofins Panlabs, Inc.). The radioactivity obtained in the absence of SST14 is considered as total binding and that obtained in the presence of 1 µM of SST14 is considered as nonspecific binding. Specific binding was considered as the difference between total and nonspecific.
(§4) Biochemical assay results are presented as the percent inhibition of specific bindin g (% inhib ition) as a […]
(§5) part of each binding assay with the five (SSTR1 -SS T R5 ) . I C50 values were determined by a non-linear, least squares regression analysis using Prism 9 (GraphPad Software, USA), using the Dose -response inhibit ion (t hree-parameters) model.

Data set [1] in a line: In vitro stability of peptides in human plasma (half-life in serum). The note with it: serum half-life of analogue 5 vs native CST.
Description: The peptides were dissolved in water at a concentration of 6 mg/mL and warmed up to 37 °C. Human plasma was obtained as a lyophilised solid (K3 EDTA Plasma, BBI solutions, code S112-1), reconstituted with sterile 0.9% sodium chloride solution and stored at −20 °C. Human plasma was thawed and incubated at 37 °C before use.
The peptides were incubated in 90% human plasma at 37 °C for different times and then precipitated with two volume equivalents of methanol. […] The supernatant was filtered with a 0.45-µm PVDF filter and analysed in triplicate by RP-HPLC using an isocratic method (eluent A = 0.1%TFA in water; eluent B = 0.07%TFA in ACN, column = Kromasil C8, 100 Å, 5 µm, 250 × 4.6 mm, flow = 1 mL/min, wavelength = 220 nm, injection volume = 20 µL, Tª = 60 °C). The disappearance of the peptide was determined in relation to the area of the initial time for calculating its half-life.
The target of a further data set is T2, SSTR1 (Homo sapiens, UniProt P30872).
T2 construct: host or cells: CHO-K1
T2 sequence (P30872 whole entry): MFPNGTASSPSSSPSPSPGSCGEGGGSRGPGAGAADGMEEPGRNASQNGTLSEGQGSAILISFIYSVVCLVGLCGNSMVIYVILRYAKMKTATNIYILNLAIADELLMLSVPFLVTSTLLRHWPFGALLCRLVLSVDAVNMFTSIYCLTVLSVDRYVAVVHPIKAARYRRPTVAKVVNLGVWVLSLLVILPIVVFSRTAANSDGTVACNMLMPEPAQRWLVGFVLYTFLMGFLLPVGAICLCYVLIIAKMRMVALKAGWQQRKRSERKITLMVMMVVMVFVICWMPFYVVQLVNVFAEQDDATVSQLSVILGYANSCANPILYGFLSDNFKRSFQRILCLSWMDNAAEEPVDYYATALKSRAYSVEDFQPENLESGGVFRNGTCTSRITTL
Description: Radio-ligand binding assay, SSTR1. The procedure: as §1, §2, §3, §4, §5

For the next data set, the target named is T3, SSTR2 (Homo sapiens, UniProt P30874).
T3 construct: host or cells: CHO-K1
T3 sequence (P30874 whole entry): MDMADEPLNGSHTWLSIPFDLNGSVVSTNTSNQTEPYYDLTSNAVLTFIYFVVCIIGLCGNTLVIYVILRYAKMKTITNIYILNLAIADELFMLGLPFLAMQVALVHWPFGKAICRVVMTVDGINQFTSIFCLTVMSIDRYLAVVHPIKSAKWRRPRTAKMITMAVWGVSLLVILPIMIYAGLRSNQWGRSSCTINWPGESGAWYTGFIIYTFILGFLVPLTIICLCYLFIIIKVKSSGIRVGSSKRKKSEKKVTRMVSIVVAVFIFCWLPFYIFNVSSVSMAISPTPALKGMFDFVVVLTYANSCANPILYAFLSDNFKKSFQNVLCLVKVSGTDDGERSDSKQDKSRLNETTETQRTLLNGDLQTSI
In words: Radio-ligand binding assay, SSTR2. The procedure:
as §1, §2, §3, §4, §5

The next data set concerns the target T4, SSTR5 (Homo sapiens, UniProt P35346).
T4 construct: host or cells: CHO-K1
Description: Radio-ligand binding assay, SSTR5. As to the method:
as §1, §2, §3, §4, §5

A further data set is described as follows: in vitro. Type of data set: cell-based. The note with it: mouse, peritoneal macrophages stimulated with LPS, Viability of Macrophages (%, vs. Initiation of culture). As to the method: Mouse peritoneal macrophages were cultured in medium (unstimulated) or stimulated with LPS (1 μg/ml) in the absence or presence of Analogue 5 (100 nM). Mouse spleen cells were cultured in medium alone (unstimulated) or stimulated with anti -CD3 a ntib odies (2 μg/ml) in the absence or presence of analogue 5 (100 nM). After 24 hours (macrophages) or 48 hours (spleen cells) of culture, cell viability and apoptosis were determined. The percentage of cell viability relative to the initiation of cell c ult ure was determined using AlamarBlue assay (Thermo Fisher Scientific). The percentage of apoptotic cells was determined by flow cytometric analysis of Annexin Vpositive 7-amino-actinomycin Dnegative cell population (R&D Systems). Data are the mean ± SEM of 5 independe nt cultures performed in duplicates. […]
Treatments were administered in a curative regime as described in Figure 4 and sera were collected 10 days after TNBS infusion. n=8 mice/group. […] Statistical differences between groups were calculated usi ng unpa ired two -tailed Student’s t-test. ****p<0.0001 versus TNBS+saline […]
Total RNA was isolated from colon sections obtained at day 10 after TNBS injection following the manufacturer’s protocol (Tripure, Roche). […] SYBER green quantitative PCR (SensiFast Sybr No-Rox mix, Bioline) was performed as described in the […]

SMILES strings stand for the structures.

T1 sequence (P32745 whole entry): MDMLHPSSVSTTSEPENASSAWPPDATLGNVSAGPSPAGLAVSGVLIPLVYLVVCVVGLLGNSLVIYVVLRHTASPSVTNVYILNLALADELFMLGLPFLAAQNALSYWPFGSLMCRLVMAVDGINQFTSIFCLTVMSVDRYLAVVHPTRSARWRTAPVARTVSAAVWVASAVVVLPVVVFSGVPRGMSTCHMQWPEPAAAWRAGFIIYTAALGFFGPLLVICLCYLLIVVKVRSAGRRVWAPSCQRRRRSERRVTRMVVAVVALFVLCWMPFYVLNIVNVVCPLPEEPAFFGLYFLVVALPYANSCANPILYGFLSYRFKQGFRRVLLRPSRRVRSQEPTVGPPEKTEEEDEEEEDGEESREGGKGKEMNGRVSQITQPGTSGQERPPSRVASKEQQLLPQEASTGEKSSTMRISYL
T4 sequence (P35346 whole entry): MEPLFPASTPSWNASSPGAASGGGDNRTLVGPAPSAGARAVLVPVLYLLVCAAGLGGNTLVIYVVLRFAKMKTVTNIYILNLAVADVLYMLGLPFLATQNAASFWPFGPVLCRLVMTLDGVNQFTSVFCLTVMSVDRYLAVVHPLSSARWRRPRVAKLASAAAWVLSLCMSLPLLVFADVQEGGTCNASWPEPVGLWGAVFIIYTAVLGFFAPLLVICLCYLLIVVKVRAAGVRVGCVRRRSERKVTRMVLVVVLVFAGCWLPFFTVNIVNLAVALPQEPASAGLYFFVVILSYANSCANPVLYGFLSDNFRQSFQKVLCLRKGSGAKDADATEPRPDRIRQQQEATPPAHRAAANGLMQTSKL

With `CCCCCCCC(=O)N1CCC[C@H]1C(=O)N[C@H]1CSSC[C@@H](C(=O)N[C@@H](CCCCN)C(=O)O)NC(=O)[C@H](CO)NC(=O)[C@H]([C@@H](C)O)NC(=O)[C@H](Cc2ccccc2)NC(=O)[C@H]([C@@H](C)O)NC(=O)[C@H](CCCCN)NC(=O)[C@@H](Cc2c[nH]c3ccccc23)NC(=O)[C@H](Cc2ccccc2)NC(=O)[C@H](Cc2c(C)cc(C)cc2C)NC(=O)[C@H](CC(N)=O)NC(=O)[C@H](CCCCN)NC1=O` [A5], the IC50 on SSTR3 came to 5.1 nM; on SSTR1, 47.3 nM; on SSTR2, 35 nM; on SSTR5, 1.12 nM. Moreover, the “increase in stability with respect to the native neuropeptide” value in data set [1] was 10 fold. Moreover, the viability at 24 h, 0.1 µM in the data set “in vitro” was determined as 93.2%.
